Experimental data as given in patent US11261211B2, “19-NOR neuroactive steroids and methods of use thereof” (Sage Therapeutics, Inc., priority 2013, dated 2022).

Columns and labels:
α4β3δ GABAA receptor = α4β3δ GABAA receptor (Homo sapiens (Human), UniProt P28472+P48169); experiment: Patch clamp electrophysiology of recombinant α4β3δ GABAA receptors in CHO cells; type: cell-based; settings: 10 μM compound, GABA EC20 2 μM; for activity at 10 µM: manual patch, read-out: α4β3δ GABA Manual Patch in CHO (Efficacy at 10 μM)
Protocol: (§1) Cellular electrophysiology is used to measure the pharmacological properties of our GABAA receptor modulators in heterologous cell systems. Each compound is tested for its ability to affect GABA mediated currents at a submaximal agonist dose (GABA EC20=2 μM). LTK cells are stably transfected with the α1β2γ2 subunits of the GABA receptor and CHO cells are transiently transfected with the α4β3δ subunits via the Lipofecatamine method. Cells were passaged at a confluence of about 50-80% and then seeded onto 35 mm sterile culture dishes containing 2 ml culture complete medium without antibiotics or antimycotics. Confluent clusters of cells are electrically coupled (Pritchett et al., 1988). Because responses in distant cells are not adequately voltage clamped and because of uncertainties about the extent of coupling (Verdoorn et al., 1990), cells were cultivated at a density that enables the recording of single cells (without visible connections to other cells).
(§2) Whole cell currents were measured with HEKA EPC-10 amplifiers using PatchMaster software or by using the high throughput QPatch platform (Sophion). Bath solution for all experiments contained (in mM): NaCl 137 mM, KCl 4 mM, CaCl2 1.8 mM, MgCl2 1 mM, HEPES 10 mM, D-Glucose 10 mM, pH (NaOH) 7.4. In some cases 0.005% cremophor was also added. Intracellular (pipette) solution contained: KCl 130 mM, MgCl2 1 mM, Mg-ATP 5 mM, HEPES 10 mM, EGTA 5 mM, pH 7.2. During experiments, cells and solutions were maintained at room temperature (19° C.-30° C.). For manual patch clamp recordings, cell culture dishes were placed on the dish holder of the microscope and continuously perfused (1 ml/min) with bath solution. After formation of a Gigaohm seal between the patch electrodes and the cell (pipette resistance range: 2.5 MΩ-6.0 MΩ; seal resistance range: >1 GΩ) the cell membrane across the pipette tip was ruptured to assure electrical access to the cell interior (whole-cell patch-configuration). For experiments using the QPatch system, cells were transferred as suspension to the QPatch system in the bath solution and automated whole cell recordings were performed.
(§3) Cells were voltage clamped at a holding potential of −80 mV. For the analysis of test articles, GABA receptors were stimulated by 2 μM GABA after sequential pre-incubation of increasing concentrations of the test article. Pre-incubation duration was 30 s and the duration of the GABA stimulus was 2 s. Test articles were dissolved in DMSO to form stock solutions (10 mM). Test articles were diluted to 0.01, 0.1, 1, and 10 μM in bath solution. All concentrations of test articles were tested on each cell. The relative percentage potentiation was defined as the peak amplitude in response to GABA EC20 in the presence of the test article divided by the peak amplitude in response to GABA EC20 alone, multiplied by 100.

α1β2γ2 GABAA receptor = α1β2γ2 GABAA receptor (Homo sapiens (Human), UniProt P14867+P47870); experiment: Patch clamp electrophysiology of recombinant α1β2γ2 GABAA receptors in LTK cells; type: cell-based; settings: 10 μM compound, Qpatch, Ltk cells, GABA EC20 2 μM; for activity at 10 µM: LTK, read-out: α1β2γ2 GABA Qpatch in Ltk (Efficacy at 10 μm)
Protocol: as §1, §2, §3

SMILES | activity at 10 µM (α4β3δ GABAA receptor) [%] | activity at 10 µM (α1β2γ2 GABAA receptor) [%] | further results
C[C@@]1(O)CC[C@H]2[C@@H](CC[C@@H]3[C@@H]2CC[C@]2(C)[C@@H](C(=O)Cn4nc5ccncc5n4)CC[C@@H]32)C1 [SB-8] | 100 to 500 | > 500 | –
C[C@@]1(O)CC[C@H]2[C@H](CC[C@@H]3[C@@H]2CC[C@]2(C)[C@@H](C(=O)Cn4nc5cccc(F)c5n4)CC[C@@H]32)C1 [SA-66] | > 500 | > 500 | –
COC[C@@]1(O)CC[C@H]2[C@@H](CC[C@@H]3[C@@H]2CC[C@]2(C)[C@@H](C(=O)Cn4nc5ccccc5n4)CC[C@@H]32)C1 [SB-50] | 100 to 500 | 10 to 100 | –
C[C@@]1(O)CC[C@H]2[C@H](CC[C@@H]3[C@@H]2CC[C@]2(C)[C@@H](C(=O)Cn4cc5c(n4)CCCC5)CC[C@@H]32)C1 [SA-7] | – | – | α4β3δ GABA Manual Patch in CHO (Efficacy at 10 μM) (α4β3δ GABAA receptor): B (“B” indicates an efficacy value of >100-500%); α1β2γ2 GABA Qpatch in Ltk (Efficacy at 10 μm) (α1β2γ2 GABAA receptor): B (“B” indicates an efficacy value of >100-500%)
C[C@@]1(O)CC[C@H]2[C@H](CC[C@@H]3[C@@H]2CC[C@]2(C)[C@@H](C(=O)Cn4cc5ncc(Cl)cc5n4)CC[C@@H]32)C1 [SA-26] | 100 to 500 | > 500 | –
C[C@@]1(O)CC[C@H]2[C@H](CC[C@@H]3[C@@H]2CC[C@]2(C)[C@@H](C(=O)Cn4cc5cncnc5n4)CC[C@@H]32)C1 [SA-35] | > 500 | 100 to 500 | –
C[C@@]1(O)CC[C@H]2[C@H](CC[C@@H]3[C@@H]2CC[C@]2(C)[C@@H](C(=O)Cn4nc5cccc(Cl)c5n4)CC[C@@H]32)C1 [SA-78] | 100 to 500 | 100 to 500 | –
C[C@@]1(O)CC[C@H]2[C@H](CC[C@@H]3[C@@H]2CC[C@]2(C)[C@@H](C(=O)Cn4cc5ccncc5n4)CC[C@@H]32)C1 [SA-20] | – | – | α4β3δ GABA Manual Patch in CHO (Efficacy at 10 μM) (α4β3δ GABAA receptor): C (“C” indicates an efficacy value of >500%); α1β2γ2 GABA Qpatch in Ltk (Efficacy at 10 μm) (α1β2γ2 GABAA receptor): C (“C” indicates an efficacy value of >500%)
Cc1ccc2nn(CC(=O)[C@H]3CC[C@H]4[C@@H]5CC[C@@H]6C[C@](C)(O)CC[C@@H]6[C@H]5CC[C@]34C)nc2c1 [SA-44] | 100 to 500 | 100 to 500 | –
C[C@@]1(O)CC[C@H]2[C@H](CC[C@@H]3[C@@H]2CC[C@]2(C)[C@@H](C(=O)Cn4cc5ncncc5n4)CC[C@@H]32)C1 [SA-32] | > 500 | > 500 | –
C[C@@]1(O)CC[C@H]2[C@@H](CC[C@@H]3[C@@H]2CC[C@]2(C)[C@@H](C(=O)Cn4cc5ncccc5n4)CC[C@@H]32)C1 [SB-4] | – | – | α4β3δ GABA Manual Patch in CHO (Efficacy at 10 μM) (α4β3δ GABAA receptor): C (“C” indicates an efficacy value of >500%); α1β2γ2 GABA Qpatch in Ltk (Efficacy at 10 μm) (α1β2γ2 GABAA receptor): C (“C” indicates an efficacy value of >500%)
C[C@@]1(O)CC[C@H]2[C@H](CC[C@@H]3[C@@H]2CC[C@]2(C)[C@@H](C(=O)Cn4nc5ccncc5n4)CC[C@@H]32)C1 [SA-11] | 100 to 500 | > 500 | –
C[C@@]1(O)CC[C@H]2[C@H](CC[C@@H]3[C@@H]2CC[C@]2(C)[C@@H](C(=O)Cn4cc5nccnc5n4)CC[C@@H]32)C1 [SA-28] | 100 to 500 | 100 to 500 | –
C[C@]12CC[C@H]3[C@@H](CC[C@H]4C[C@@](O)(CF)CC[C@@H]43)[C@@H]1CC[C@@H]2C(=O)Cn1nc2ccncc2n1 [SB-15] | 100 to 500 | 100 to 500 | –
C[C@]12CC[C@H]3[C@@H](CC[C@@H]4C[C@@](O)(CF)CC[C@@H]43)[C@@H]1CC[C@@H]2C(=O)Cn1nc2ccccc2n1 [SA-80] | > 500 | > 500 | –
C[C@@]1(O)CC[C@H]2[C@H](CC[C@@H]3[C@@H]2CC[C@]2(C)[C@@H](C(=O)Cn4nc5ccc(F)cc5n4)CC[C@@H]32)C1 [SA-63] | 100 to 500 | – | –
COc1ccc2nn(CC(=O)[C@H]3CC[C@H]4[C@@H]5CC[C@@H]6C[C@](C)(O)CC[C@@H]6[C@H]5CC[C@]34C)nc2c1 [SA-49] | > 500 | – | –
C[C@]12CC[C@H]3[C@@H](CC[C@@H]4C[C@@](O)(C(F)F)CC[C@@H]43)[C@@H]1CC[C@@H]2C(=O)Cn1nnc2ccccc21 [SA-90] | – | 10 to 100 | –
CC[C@@]1(O)CC[C@H]2[C@H](CC[C@@H]3[C@@H]2CC[C@]2(C)[C@@H](C(=O)Cn4nc5ccncc5n4)CC[C@@H]32)C1 [SA-114] | – | > 500 | –
COc1ccc2nn(CC(=O)[C@H]3CC[C@H]4[C@@H]5CC[C@@H]6C[C@](C)(O)CC[C@@H]6[C@H]5CC[C@]34C)nc2c1 [SA-47] | – | > 500 | –

SMILES | activity at 10 µM (α4β3δ GABAA receptor) [%] | activity at 10 µM (α1β2γ2 GABAA receptor) [%] | further results
C[C@]12CC[C@H]3[C@@H](CC[C@H]4C[C@@](O)(CF)CC[C@@H]43)[C@@H]1CC[C@@H]2C(=O)Cn1ncc2ncccc21 [SB-17] | – | 10 to 100 | –
COC[C@@]1(O)CC[C@H]2[C@H](CC[C@@H]3[C@@H]2CC[C@]2(C)[C@@H](C(=O)Cn4cc5ncccc5n4)CC[C@@H]32)C1 [SA-116] | – | > 500 | –
C[C@]12CC[C@H]3[C@@H](CC[C@H]4C[C@@](O)(CF)CC[C@@H]43)[C@@H]1CC[C@@H]2C(=O)Cn1nc2ccc(F)cc2n1 [SG-24] | – | 100 to 500 | –
C[C@]12CC[C@H]3[C@@H](CC[C@H]4C[C@@](O)(CF)CC[C@@H]43)[C@@H]1CC[C@@H]2C(=O)Cn1nnc2ccccc21 [SB-12] | – | 100 to 500 | –
C[C@@]1(O)CC[C@H]2[C@H](CC[C@@H]3[C@@H]2CC[C@]2(C)[C@@H](C(=O)Cn4nnc5cc(Cl)ccc54)CC[C@@H]32)C1 [SA-40] | – | 100 to 500 | –
COC[C@@]1(O)CC[C@H]2[C@@H](CC[C@@H]3[C@@H]2CC[C@]2(C)[C@@H](C(=O)Cn4ncc5ccncc54)CC[C@@H]32)C1 [SB-46] | – | 100 to 500 | –
C[C@]12CC[C@H]3[C@@H](CC[C@@H]4C[C@@](O)(CF)CC[C@@H]43)[C@@H]1CC[C@@H]2C(=O)Cn1ncc2ccncc21 [SA-86] | – | 100 to 500 | –
Cc1ccc2nnn(CC(=O)[C@H]3CC[C@H]4[C@@H]5CC[C@@H]6C[C@](C)(O)CC[C@@H]6[C@H]5CC[C@]34C)c2c1 [SA-42] | – | 100 to 500 | –
C[C@]12CC[C@H]3[C@@H](CC[C@@H]4C[C@@](O)(CF)CC[C@@H]43)[C@@H]1CC[C@@H]2C(=O)Cn1ncc2ncccc21 [SA-84] | – | 100 to 500 | –
CCOC[C@@]1(O)CC[C@H]2[C@@H](CC[C@@H]3[C@@H]2CC[C@]2(C)[C@@H](C(=O)Cn4cc5ccncc5n4)CC[C@@H]32)C1 [SB-57] | – | 100 to 500 | –
C[C@]12CC[C@H]3[C@@H](CC[C@H]4C[C@@](O)(CF)CC[C@@H]43)[C@@H]1CC[C@@H]2C(=O)Cn1nnc2cnccc21 [SB-14] | – | 10 to 100 | –
CC[C@@]1(O)CC[C@H]2[C@H](CC[C@@H]3[C@@H]2CC[C@]2(C)[C@@H](C(=O)Cn4cc5ncccc5n4)CC[C@@H]32)C1 [SA-110] | – | > 500 | –
C[C@@]1(O)CC[C@H]2[C@H](CC[C@@H]3[C@@H]2CC[C@]2(C)[C@@H](C(=O)Cn4nnc5cnccc54)CC[C@@H]32)C1 [SA-12] | – | 100 to 500 | –
CCOC[C@@]1(O)CC[C@H]2[C@@H](CC[C@@H]3[C@@H]2CC[C@]2(C)[C@@H](C(=O)Cn4nc5ccc(F)cc5n4)CC[C@@H]32)C1 [SB-60] | – | 10 to 100 | –
C[C@@]1(O)CC[C@H]2[C@@H](CC[C@@H]3[C@@H]2CC[C@]2(C)[C@@H](C(=O)Cn4nc5ccccc5n4)CC[C@@H]32)C1 [SB-2] | – | > 500 | –
C[C@]12CC[C@H]3[C@@H](CC[C@@H]4C[C@@](O)(C(F)F)CC[C@@H]43)[C@@H]1CC[C@@H]2C(=O)Cn1nc2ccncc2n1 [SA-97] | – | > 500 | –
COc1ccc2nn(CC(=O)[C@H]3CC[C@H]4[C@@H]5CC[C@H]6C[C@@](O)(CF)CC[C@@H]6[C@H]5CC[C@]34C)nc2c1 [SG-21] | – | 10 to 100 | –
CCOC[C@@]1(O)CC[C@H]2[C@@H](CC[C@@H]3[C@@H]2CC[C@]2(C)[C@@H](C(=O)Cn4ncc5ncccc54)CC[C@@H]32)C1 [SB-54] | – | 100 to 500 | –
CCOC[C@@]1(O)CC[C@H]2[C@@H](CC[C@@H]3[C@@H]2CC[C@]2(C)[C@@H](C(=O)Cn4nnc5ccccc54)CC[C@@H]32)C1 [SB-52] | – | 100 to 500 | –
